Results published in ChEMBL document CHEMBL3046846, “Synthesis of N-Alkyl-2, 3-dimethyl-5-[N-(5-halo-2-methylphenyl)carbamoyl]-6-pyrazinecarboxamides and Their Herbicidal Activity” (J Pestic Sci, 1997).

Legend:
Xanthium strumarium [1] = assay: Herbicidal activity against Xanthium strumarium (cocklebur) 200 g/ha after 2 weeks; type: functional
Abutilon theophrasti [2] = assay: Herbicidal activity against Abutilon theophrasti (velvetleaf) at 200 g/ha after 2 weeks; type: functional
Echinochloa crus-galli [3] = assay: Herbicidal activity against Echinochloa crus-galli (barnyard grass) at 200 g/ha after 2 weeks; type: functional
Avena fatua [4] = assay: Herbicidal activity against Avena fatua at 200 g/ha after 2 weeks; type: functional
Glycine max [5] = assay: Herbicidal activity against Glycine max (soybean) at 200 g/ha after 2 weeks; type: organism-based; settings: in vivo, 336 h
Triticum aestivum [6] = assay: Herbicidal activity against Triticum aestivum (wheat) at 200 g/ha after 2 weeks; type: organism-based; settings: in vivo, 336 h
Veronica persica [7] = assay: Herbicidal activity against Veronica persica at 200 g/ha after 2 weeks; type: functional
Galium spurium [8] = assay: Herbicidal activity against Galium spurium var. echinospermon (Wally.) Hayek at 200 g/ha after 2 weeks; type: functional
Veronica persica [9] = assay: Herbicidal activity against Veronica persica at 140 g/ha after 2 weeks; type: functional
Galium spurium [10] = assay: Herbicidal activity against Galium spurium var. echinospermon (Wally.) Hayek at 140 g/ha after 2 weeks; type: functional
Xanthium strumarium [11] = assay: Herbicidal activity against Xanthium strumarium (cocklebur) 140 g/ha after 2 weeks; type: functional
Abutilon theophrasti [12] = assay: Herbicidal activity against Abutilon theophrasti (velvetleaf) at 140 g/ha after 2 weeks; type: functional
Echinochloa crus-galli [13] = assay: Herbicidal activity against Echinochloa crus-galli (barnyard grass) at 140 g/ha after 2 weeks; type: functional
Avena fatua [14] = assay: Herbicidal activity against Avena fatua at 140 g/ha after 2 weeks; type: functional
Glycine max [15] = assay: Herbicidal activity against Glycine max (soybean) at 140 g/ha after 2 weeks; type: organism-based; settings: in vivo, 336 h
Triticum aestivum [16] = assay: Herbicidal activity against Triticum aestivum (wheat) at 140 g/ha after 2 weeks; type: organism-based; settings: in vivo, 336 h
Veronica persica [17] = assay: Herbicidal activity against Veronica persica at 500 g/ha after 2 weeks; type: functional
Galium spurium [18] = assay: Herbicidal activity against Galium spurium var. echinospermon (Wally.) Hayek at 500 g/ha after 2 weeks; type: functional
Xanthium strumarium [19] = assay: Herbicidal activity against Xanthium strumarium (cocklebur) 500 g/ha after 2 weeks; type: functional
Abutilon theophrasti [20] = assay: Herbicidal activity against Abutilon theophrasti (velvetleaf) at 500 g/ha after 2 weeks; type: functional
Avena fatua [21] = assay: Herbicidal activity against Avena fatua at 500 g/ha after 2 weeks; type: functional
Echinochloa crus-galli [22] = assay: Herbicidal activity against Echinochloa crus-galli (barnyard grass) at 500 g/ha after 2 weeks; type: functional
Glycine max [23] = assay: Herbicidal activity against Glycine max (soybean) at 500 g/ha after 2 weeks; type: organism-based; settings: in vivo, 336 h
Triticum aestivum [24] = assay: Herbicidal activity against Triticum aestivum (wheat) at 500 g/ha after 2 weeks; type: ADME, organism-based; settings: in vivo, 336 h
Veronica persica [25] = assay: Herbicidal activity against Veronica persica at 250 g/ha after 2 weeks; type: functional
Galium spurium [26] = assay: Herbicidal activity against Galium spurium var. echinospermon (Wally.) Hayek at 250 g/ha after 2 weeks; type: functional
Xanthium strumarium [27] = assay: Herbicidal activity against Xanthium strumarium (cocklebur) 250 g/ha after 2 weeks; type: functional
Abutilon theophrasti [28] = assay: Herbicidal activity against Abutilon theophrasti (velvetleaf) at 250 g/ha after 2 weeks; type: functional
Echinochloa crus-galli [29] = assay: Herbicidal activity against Echinochloa crus-galli (barnyard grass) at 250 g/ha after 2 weeks; type: functional
Avena fatua [30] = assay: Herbicidal activity against Avena fatua at 250 g/ha after 2 weeks; type: functional
Glycine max [31] = assay: Herbicidal activity against Glycine max (soybean) at 250 g/ha after 2 weeks; type: organism-based; settings: in vivo, 336 h
Triticum aestivum [32] = assay: Herbicidal activity against Triticum aestivum (wheat) at 250 g/ha after 2 weeks; type: organism-based; settings: in vivo, 336 h
Veronica persica [33] = assay: Herbicidal activity against Veronica persica at 5000 g/ha after 2 weeks; type: functional
Galium spurium [34] = assay: Herbicidal activity against Galium spurium var. echinospermon (Wally.) Hayek at 5000 g/ha after 2 weeks; type: functional
Xanthium strumarium [35] = assay: Herbicidal activity against Xanthium strumarium (cocklebur) 5000 g/ha after 2 weeks; type: functional
Abutilon theophrasti [36] = assay: Herbicidal activity against Abutilon theophrasti (velvetleaf) at 5000 g/ha after 2 weeks; type: functional
Echinochloa crus-galli [37] = assay: Herbicidal activity against Echinochloa crus-galli (barnyard grass) at 5000 g/ha after 2 weeks; type: functional
Avena fatua [38] = assay: Herbicidal activity against Avena fatua at 5000 g/ha after 2 weeks; type: functional
Glycine max [39] = assay: Herbicidal activity against Glycine max (soybean) at 5000 g/ha after 2 weeks; type: organism-based; settings: in vivo, 336 h
Triticum aestivum [40] = assay: Herbicidal activity against Triticum aestivum (wheat) at 5000 g/ha after 2 weeks; type: ADME, organism-based; settings: in vivo, 336 h

Row | Structure (SMILES) | Activity (Veronica persica [17]) | Activity (Galium spurium [18]) | Activity (Xanthium strumarium [19]) | Activity (Abutilon theophrasti [20]) | Activity (Avena fatua [21]) | Activity (Echinochloa crus-galli [22]) | Activity (Glycine max [23]) | Activity (Triticum aestivum [24]) | Activity (Veronica persica [25]) | Activity (Galium spurium [26]) | Activity (Xanthium strumarium [27]) | Activity (Abutilon theophrasti [28]) | Activity (Echinochloa crus-galli [29]) | Activity (Avena fatua [30]) | Activity (Glycine max [31]) | Activity (Triticum aestivum [32]) | Activity (Veronica persica [33]) | Activity (Galium spurium [34]) | Activity (Xanthium strumarium [35]) | Activity (Abutilon theophrasti [36]) | further results
1 | CS(=O)(=O)NC(=O)c1cc(Oc2ccc(C(F)(F)F)cc2Cl)ccc1[N+](=O)[O-] [FOMESAFEN] |  |  |  |  |  |  |  |  |  |  |  |  |  |  |  |  |  |  |  |  | Activity (Xanthium strumarium [1]): 50%; Activity (Abutilon theophrasti [2]): 95%; Activity (Echinochloa crus-galli [3]): 30%; Activity (Avena fatua [4]): <10%; Activity (Glycine max [5]): < 10%; Activity (Triticum aestivum [6]): 30%; Activity (Veronica persica [7]): 95%; Activity (Galium spurium [8]): 70%
2 | CC(C)C1(C)N=C(c2nc3ccccc3cc2C(=O)O)NC1=O (stereo not drawn) [IMAZAQUIN] |  |  |  |  |  |  |  |  |  |  |  |  |  |  |  |  |  |  |  |  | Activity (Veronica persica [9]): 50%; Activity (Galium spurium [10]): 70%; Activity (Xanthium strumarium [11]): 95%; Activity (Abutilon theophrasti [12]): 30%; Activity (Echinochloa crus-galli [13]): 30%; Activity (Avena fatua [14]): 50%; Activity (Glycine max [15]): < 10%; Activity (Triticum aestivum [16]): 70%
3 | Cc1ccc(Cl)cc1NC(=O)c1nc(C)c(C)nc1C(=O)NC(C)C | 95% | <10% | 50% | <10% | <10% | <10% | < 10% | < 10% | 50% | <10% | 50% | <10% | <10% | <10% | < 10% | < 10% | 95% | 95% | 95% | 95% | Activity (Echinochloa crus-galli [37]): 70%; Activity (Avena fatua [38]): 50%; Activity (Glycine max [39]): < 10%; Activity (Triticum aestivum [40]): 30%
4 | Cc1ccc(F)cc1NC(=O)c1nc(C)c(C)nc1C(=O)NC(C)(C)C | 70% | <10% | <10% | <10% | <10% | <10% | < 10% | < 10% | <10% | <10% | <10% | <10% | <10% | <10% | < 10% | < 10% | 95% | 10% | 95% | 95% | Activity (Echinochloa crus-galli [37]): 70%; Activity (Avena fatua [38]): 95%; Activity (Glycine max [39]): < 10%; Activity (Triticum aestivum [40]): 30%
5 | CCCNC(=O)c1nc(C)c(C)nc1C(=O)Nc1cc(F)ccc1C | 95% | <10% | 95% | 30% | <10% | 10% | < 10% | < 10% | 95% | <10% | 30% | 30% | <10% | <10% | < 10% | < 10% | 95% | 95% | 95% | 95% | Activity (Echinochloa crus-galli [37]): 30%; Activity (Avena fatua [38]): 10%; Activity (Glycine max [39]): < 10%; Activity (Triticum aestivum [40]): 30%
